Assay results as given in US9790174B2, “Kinase inhibitors” (Respivert Limited, priority 2013, dated 2017).

What was measured:
B-Raf = B-Raf (Homo sapiens (Human), UniProt P15056); assay: KINOMEscan binding of kinase to standard ligand
Experimental: (§1) Kinase enzyme binding activities of compounds disclosed herein may be determined using a proprietary assay which measures active site-directed competition binding to an immobilized ligand (Fabian, M. A. et al., Nature Biotechnol., 2005, 23:329-336). These assays may be conducted by DiscoverX (formerly Ambit; San Diego, Calif.). The percentage inhibition produced by incubation with a test compound may be calculated relative to the non-inhibited control.

B-Raf (V600E) = B-Raf (V600E) (Homo sapiens (Human), UniProt P15056, V600E); assay: KINOMEscan binding of kinase to standard ligand
Experimental: as §1

non-mutant kinases = assay: KinomeScan selectivity scores; format: binding; details: for number of individual kinase hits S(1): % Ctrl <1; for number of individual kinase hits S(10): % Ctrl <10; for number of individual kinase hits S(35): % Ctrl <35; for selectivity compared to the Reference Compound: evidenced by lower selectivity scores
Experimental: These assays may be conducted by DiscoverX (formerly Ambit; San Diego, Calif.). The percentage inhibition produced by incubation with a test compound may be calculated relative to the non-inhibited control.

TNBS-induced colitis = TNBS-induced colitis in mice; format: in vivo, BDF1 mice; details: conducted over 2 days; oral
Experimental: Non-fasted, 10-12 week old, male BDF1 mice are dosed by oral gavage twice daily with either vehicle (5 mL/kg), reference item (Budesonide 2.5 mg/kg) or test compound (1 or 5 mg/kg) one day before (Day −1) stimulation of the inflammatory response by treatment with 2,4,6-trinitrobenzenesulphonic acid (TNBS) (15 mg/mL in 50% ethanol/50% saline). On Day 0 of the study TNBS (200 μL) is administered intra-colonically via a plastic catheter with BID dosing of the vehicle, reference or test compound continuing for 2 or 4 days. During the study, animals are weighed every day and stool observations are made and recorded as a score, based on stool consistency. At the time of sacrifice on Day 2 (or Day 4), the large intestine is removed and the length and weight recorded. Sections of the colon are taken for histopathology scoring to determine disease severity.

[1] = tested on: adoptive transfer colitis; assay: Adoptive transfer in mice; format: in vivo, SCID mice; details: for % Inhibition: colon weight:length, induction window between naïve and vehicle animals
Experimental: On Study day 0, female Balb/C mice are terminated and spleens obtained for CD45RB^high cell isolation (Using SCID IBD cell Separation protocol). Approximately 4×10^5 cells/mL CD45RB^high cells are then injected intraperitoneally (100 μL/mouse) into female SCID animals. On study day 14, mice are weighed and randomized into treatment groups based on body weight. On Day 14, compounds are administered BID, via oral gavage, in a peanut oil vehicle at the dose levels outlined below in Tables 6a and 6b and a dose volume of 5 mL/kg. Treatment continues until study day 42, at which point the animals are necropsied 4 hours after the morning administration. The colon length and weight are recorded and used as a secondary endpoint in the study as a measurement of colon oedema. The colon is then divided into six cross-sections, four of which are used for histopathology scoring (primary endpoint) and two are homogenised for cytokine analysis. Data shown is the % inhibition of the induction window between nave animals and vehicle animals, where higher inhibition implies closer to the non-diseased, nave, phenotype.

[2] = tested on: intestinal mucosa biopsies from ulcerative colitis patients; assay: Human biopsy assay (cytokine release from intestinal mucosa biopsies); format: cell-based; details: 1 μg/mL, 24 hours
Experimental: Intestinal mucosa biopsies are obtained from the inflamed regions of the colons of IBD patients. The biopsy material is cut into small pieces (2-3 mm) and placed on steel grids in an organ culture chamber at 37° C. in a 5% CO2/95% O2 atmosphere in serum-free media. DMSO control or test compounds at the desired concentration are added to the tissue and incubated for 24 hr in the organ culture chamber. The supernatant is harvested for determination of IL-6, IL-8, IL-1β and TNFα levels by R&D ELISA.

[3] = tested on: endotoxin-induced uveitis; assay: Endotoxin-induced uveitis in rats; format: in vivo, Lewis rats; details: rats treated with intravitreal endotoxin LPS
Experimental: Male, Lewis rats (6-8 weeks old, Charles River UK Limited) are housed in cages of 3 at 19-21° C. with a 12 h light/dark cycle (07:00/19:00) and fed a standard diet of rodent chow and water ad libitum. Non-fasted rats are weighed, individually identified on the tail with a permanent marker, and receive a single intravitreal administration into the right vitreous humor (5 μL dose volume) of 100 ng/animal of LPS (Escherichia coli 0111:B4 prepared in PBS, Sigma Aldrich, UK) using a 32-gauge needle. Untreated rats are injected with PBS. […] Following euthanasia, the right eye of each animal is enucleated and dissected into front (anterior) and back (posterior) sections around the lens. Each section is weighed and homogenised in 500 μL of sterile phosphate buffered saline followed by 20 minutes centrifugation at 12000 rpm at 4° C.

[4] = tested on: Salmonella typhimurium, strains TA98 and TA100; assay: Mutagenicity assessment (bacterial reverse mutation screen); format: cell-based; details: TA98 and TA100, presence or absence of S-9 mix
Experimental: Studies were conducted by Sequani (Ledbury, Herefordshire, UK) to assess compounds of the invention for their ability to induce mutations in two histidine dependent auxotrophic mutants of Salmonella typhimurium, strains TA98 and TA100 in vitro.
The mutation screen was conducted using the plate incorporation method and was performed in both the presence and absence of S-9 mix (a liver post-mitochondrial fraction derived from the livers of Aroclor 1254 treated rats). The bacteria were exposed to test compounds dissolved in dimethylsulphoxide, which solvent was also used as the negative control. The dose levels used were 0.32, 1.6, 8, 40, 200, 1000 or 5000 μg/plate.

Chain of B-Raf (V600E) (P15056 whole entry V600E): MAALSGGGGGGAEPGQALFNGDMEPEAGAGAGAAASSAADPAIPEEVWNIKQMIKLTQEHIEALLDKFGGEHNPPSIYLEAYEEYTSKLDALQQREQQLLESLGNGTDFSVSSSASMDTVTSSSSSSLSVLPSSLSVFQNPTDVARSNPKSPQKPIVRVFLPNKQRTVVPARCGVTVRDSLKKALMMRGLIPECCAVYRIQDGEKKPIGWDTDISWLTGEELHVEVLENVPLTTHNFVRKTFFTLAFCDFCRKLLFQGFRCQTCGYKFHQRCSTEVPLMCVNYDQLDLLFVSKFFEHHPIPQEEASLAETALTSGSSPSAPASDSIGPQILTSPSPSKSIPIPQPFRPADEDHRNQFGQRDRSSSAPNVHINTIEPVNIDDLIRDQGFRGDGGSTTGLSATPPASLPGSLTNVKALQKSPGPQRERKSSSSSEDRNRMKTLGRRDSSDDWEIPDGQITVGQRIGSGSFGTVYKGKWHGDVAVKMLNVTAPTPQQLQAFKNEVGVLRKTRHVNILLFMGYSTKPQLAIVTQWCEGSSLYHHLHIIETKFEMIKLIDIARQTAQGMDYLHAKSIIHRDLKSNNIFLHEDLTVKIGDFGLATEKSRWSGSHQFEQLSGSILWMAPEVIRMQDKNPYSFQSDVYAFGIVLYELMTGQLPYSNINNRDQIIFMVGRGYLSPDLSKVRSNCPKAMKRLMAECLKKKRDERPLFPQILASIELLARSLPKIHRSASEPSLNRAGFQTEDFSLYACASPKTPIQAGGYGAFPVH
Chain of B-Raf (P15056 whole entry): as the sequence (P15056 whole entry V600E) above, with E600V counted along it

COCCOCCOCCNC(=O)c1cc(Nc2cc(Oc3ccc(NC(=O)Nc4cc(C(C)(C)C)cc(NS(C)(=O)=O)c4OC)c4ccccc34)ccn2)cc(OC)c1 [Example 3, 3-((4-((4-(3-(5-(tert-Butyl)-2-methoxy-3-(methylsulfonamido)phenyl)ureido)naphthalen-1-yl)oxy)pyridin-2-yl)amino)-5-methoxy-N-(2-(2-(2-methoxyethoxy)ethoxy)ethyl)benzamide]
effect on the binding of B-Raf to its standard ligand (B-Raf): did not have any significant effect
effect on the binding of B-Raf (V600E) to its standard ligand (B-Raf (V600E)): did not have any significant effect
number of individual kinase hits S(1) (non-mutant kinases; 50 nM): 0
number of individual kinase hits S(10) (non-mutant kinases; 50 nM): 9
number of individual kinase hits S(35) (non-mutant kinases; 50 nM): 36
number of individual kinase hits S(1) (non-mutant kinases; 500 nM): 18
number of individual kinase hits S(10) (non-mutant kinases; 500 nM): 59
number of individual kinase hits S(35) (non-mutant kinases; 500 nM): 93
selectivity compared to the Reference Compound (non-mutant kinases): substantially improved selectivities
activity in TNBS model of colonic inflammation (histopathology analysis) (TNBS-induced colitis): displayed substantial activity
activity in T cell driven model of colonic inflammation (ratios of colon weight to length) ([1]; adoptive transfer): displayed significant activity

COCCOCCOCCOc1cc(Nc2nccc(Oc3ccc(NC(=O)Nc4cc(C(C)(C)C)cc(NS(C)(=O)=O)c4OC)c4ccccc34)n2)cc(OC)c1 [Example 4, N-(5-(tert-Butyl)-2-methoxy-3-(3-(4-((2-((3-methoxy-5-(2-(2-(2-methoxyethoxy)ethoxy)-ethoxy)phenyl)amino)pyrimidin-4-yl)oxy)naphthalen-1-yl)ureido)phenyl)methanesulfonamide]
effect on the binding of B-Raf to its standard ligand (B-Raf): did not have any significant effect
effect on the binding of B-Raf (V600E) to its standard ligand (B-Raf (V600E)): did not have any significant effect
cytokine (IL-1β, IL-6 and IL-8) release compared to the DMSO control [2]: significantly inhibited
activity in TNBS model of colonic inflammation (histopathology analysis) (TNBS-induced colitis): displayed substantial activity
% Inhibition ([1]; 0.3 mg/kg BID oral gavage): 62%
% Inhibition ([1]; 1 mg/kg BID oral gavage): 110%
levels of pro-inflammatory cytokines in samples of colon tissue ([1]; adoptive transfer model): significantly reduced levels of pro-inflammatory cytokines
cytokine levels in anterior and posterior segments of the eyes [3]: significantly reduced cytokine levels
increases in revertant colonies [4]: no dose-related or statistically significant increases in revertant colonies

CNC(=O)c1cc(C(C)(C)C)cc(NC(=O)Nc2ccc(Oc3ccnc(Nc4cc(OC)cc(OCCOCCOCCOC)c4)c3)c3ccccc23)c1OC [Example 29, 5-(tert-Butyl)-2-methoxy-3-(3-(4-((2-((3-methoxy-5-(2-(2-(2-methoxyethoxy)ethoxy)-ethoxy)phenyl)amino)pyridin-4-yl)oxy)naphthalen-1-yl)ureido)-N-methylbenzamide]
cytokine levels in anterior and posterior segments of the eyes [3]: significantly reduced cytokine levels

COCCOCCOCCOc1cc(Nc2cc(Oc3ccc(NC(=O)Nc4cc(C(C)(C)C)cc(C(N)=O)c4OC)c4ccccc34)ccn2)cc(OC)c1 [Example 34, 5-(tert-Butyl)-2-methoxy-3-(3-(4-((2-((3-methoxy-5-(2-(2-(2-methoxyethoxy)ethoxy)ethoxy)phenyl)amino)pyridin-4-yl)oxy)naphthalen-1-yl)ureido)benzamide]
activity in TNBS model of colonic inflammation (histopathology analysis) (TNBS-induced colitis): displayed substantial activity

COc1cc(Nc2cc(Oc3ccc(NC(=O)Nc4cc(C(C)(C)C)cc(NS(C)(=O)=O)c4OC)c4ccccc34)ccn2)cc(C(=O)NCCCN2CCOCC2)c1 [Example 66, 3-((4-((4-(3-(5-(tert-Butyl)-2-methoxy-3-(methylsulfonamido)phenyl)ureido)naphthalen-1-yl)oxy)pyridin-2-yl)amino)-5-methoxy-N-(3-morpholinopropyl)benzamide]
cytokine levels in anterior and posterior segments of the eyes [3]: significantly reduced cytokine levels

COc1c(NC(=O)Nc2ccc(Oc3ccnc(Nc4ccccc4)c3)c3ccccc23)cc(C(C)(C)C)cc1C(=O)NC1COC1 [Example 75, 5-(tert-Butyl)-2-methoxy-N-(oxetan-3-yl)-3-(3-(4-((2-(phenylamino)pyridin-4-yl)oxy)-naphthalen-1-yl)ureido)benzamide]
effect on the binding of B-Raf to its standard ligand (B-Raf): did not have any significant effect
effect on the binding of B-Raf (V600E) to its standard ligand (B-Raf (V600E)): did not have any significant effect
number of individual kinase hits S(1) (non-mutant kinases; 50 nM): 2
number of individual kinase hits S(10) (non-mutant kinases; 50 nM): 14
number of individual kinase hits S(35) (non-mutant kinases; 50 nM): 39
number of individual kinase hits S(1) (non-mutant kinases; 500 nM): 15
number of individual kinase hits S(10) (non-mutant kinases; 500 nM): 55
number of individual kinase hits S(35) (non-mutant kinases; 500 nM): 91
selectivity compared to the Reference Compound (non-mutant kinases): substantially improved selectivities
activity in TNBS model of colonic inflammation (histopathology analysis) (TNBS-induced colitis): displayed substantial activity
cytokine levels in anterior and posterior segments of the eyes [3]: significantly reduced cytokine levels
increases in revertant colonies [4]: no dose-related or statistically significant increases in revertant colonies

COc1cc(Nc2cc(Oc3ccc(NC(=O)Nc4cc(C(C)(C)C)cc(NS(C)(=O)=O)c4OC)c4ccccc34)ccn2)cc(C(=O)NCCN2CCN(C)CC2)c1 [Example 79, 3-((4-((4-(3-(5-(tert-Butyl)-2-methoxy-3-(methylsulfonamido)phenyl)ureido)naphthalen-1-yl)oxy)pyridin-2-yl)amino)-5-methoxy-N-(2-(4-methylpiperazin-1-yl)ethyl)benzamide]
activity in TNBS model of colonic inflammation (histopathology analysis) (TNBS-induced colitis): displayed substantial activity
